Laboratory results: PMC10178848, “Modulating fast skeletal muscle contraction protects skeletal muscle in animal models of Duchenne muscular dystrophy” (The Journal of Clinical Investigation, 2023)

System: GRMD plasma proteins
Type: in vivo, dog
Details: Post-Treatment to GRMD baseline; Increased in GRMD

Structure (SMILES): O=c1ccc(-c2cnc(OCC(F)(F)F)nc2)nn1Cc1cncc(F)c1 [EDG-5506]
- Change from GRMD Baseline (fraction): Fructose-bisphosphate aldolase A (ALDOA): -0.0462 fraction
- Change from GRMD Baseline (fraction): G2/mitotic-specific cyclin-B1 (CCNB1): 0.0445 fraction
- Change from GRMD Baseline (fraction): Galectin-4 (LGALS4): -0.0246 fraction
- Change from GRMD Baseline (fraction): Galectin-7 (LGALS7): 0.0215 fraction
- Change from GRMD Baseline (fraction): Glucose-6-phosphate isomerase (GPI): -0.1195 fraction
- Change from GRMD Baseline (fraction): Glyceraldehyde-3-phosphate dehydrogenase (GAPDH): 0.1936 fraction
- Change from GRMD Baseline (fraction): Glycogen synthase kinase-3 alpha/beta (GSK3A GSK3B): -0.1722 fraction
- Change from GRMD Baseline (fraction): Granulocyte-macrophage colony-stimulating factor (CSF2): -0.1154 fraction
- Change from GRMD Baseline (fraction): Growth factor receptor-bound protein 2 (GRB2): -0.2826 fraction
- Change from GRMD Baseline (fraction): Growth/differentiation factor 5 (GDF5): -0.0828 fraction
- Change from GRMD Baseline (fraction): Heat shock 70 kDa protein 1A (HSPA1A): -0.1812 fraction
- Change from GRMD Baseline (fraction): Heat shock cognate 71 kDa protein (HSPA8): -0.1958 fraction
- Change from GRMD Baseline (fraction): Heat shock protein HSP 90-alpha/beta (HSP90AA1 HSP90AB1): -0.0775 fraction
- Change from GRMD Baseline (fraction): Heat shock protein HSP 90-beta (HSP90AB1): -0.0807 fraction
- Change from GRMD Baseline (fraction): Heat shock protein beta-1 (HSPB1): -0.0394 fraction
- Change from GRMD Baseline (fraction): Hepatoma-derived growth factor-related protein 2 (HDGFRP2): 0.011 fraction
- Change from GRMD Baseline (fraction): Heterogeneous nuclear ribonucleoprotein A/B (HNRNPAB): -0.0915 fraction
- Change from GRMD Baseline (fraction): Heterogeneous nuclear ribonucleoprotein Q (SYNCRIP): -0.0651 fraction
- Change from GRMD Baseline (fraction): Heterogeneous nuclear ribonucleoproteins A2/B1 (HNRNPA2B1): -0.1176 fraction
- Change from GRMD Baseline (fraction): Hexokinase-2 (HK2): 0.0338 fraction
- Change from GRMD Baseline (fraction): Histidine triad nucleotide-binding protein 1 (HINT1): -0.0574 fraction
- Change from GRMD Baseline (fraction): Histone H1.2 (HIST1H1C): -0.0242 fraction
- Change from GRMD Baseline (fraction): Histone deacetylase 8 (HDAC8): 0.0429 fraction
- Change from GRMD Baseline (fraction): Homeodomain-interacting protein kinase 3 (HIPK3): 0.4997 fraction
- Change from GRMD Baseline (fraction): Immunoglobulin superfamily containing leucine-rich repeat protein 2 (ISLR2): -0.0595 fraction
- Change from GRMD Baseline (fraction): Inducible T-cell costimulator (ICOS): -0.0476 fraction
- Change from GRMD Baseline (fraction): Inosine-5'-monophosphate dehydrogenase 2 (IMPDH2): -0.0129 fraction
- Change from GRMD Baseline (fraction): Insulin-degrading enzyme (IDE): -0.2863 fraction
- Change from GRMD Baseline (fraction): Insulin-like growth factor-binding protein 3 (IGFBP3): 0.0105 fraction
- Change from GRMD Baseline (fraction): Intercellular adhesion molecule 5 (ICAM5): -0.1345 fraction
- Change from GRMD Baseline (fraction): Interferon alpha-10 (IFNA10): -0.0472 fraction
- Change from GRMD Baseline (fraction): Interleukin-1 alpha (IL1A): -0.0188 fraction
- Change from GRMD Baseline (fraction): Interleukin-1 receptor-like 2 (IL1RL2): 0.0618 fraction
- Change from GRMD Baseline (fraction): Interleukin-15 receptor subunit alpha (IL15RA): -0.0392 fraction
- Change from GRMD Baseline (fraction): Interleukin-17F (IL17F): -0.0474 fraction
- Change from GRMD Baseline (fraction): Interleukin-37 (IL37): -0.0158 fraction
- Change from GRMD Baseline (fraction): Junctional adhesion molecule B (JAM2): -0.0421 fraction
- Change from GRMD Baseline (fraction): Junctional adhesion molecule C (JAM3): 0.0569 fraction
- Change from GRMD Baseline (fraction): Kallikrein-6 (KLK6): -0.032 fraction
- Change from GRMD Baseline (fraction): Kallikrein-12 (KLK12): 0.0927 fraction
- Change from GRMD Baseline (fraction): Kallikrein-14 (KLK14): 0.0054 fraction
- Change from GRMD Baseline (fraction): Kin of IRRE-like protein 3 (KIRREL3): 0.0811 fraction
- Change from GRMD Baseline (fraction): Kremen protein 2 (KREMEN2): -0.0135 fraction
- Change from GRMD Baseline (fraction): Kynureninase (KYNU): 0.1449 fraction
- Change from GRMD Baseline (fraction): L-Selectin (SELL): -0.0484 fraction
- Change from GRMD Baseline (fraction): L-lactate dehydrogenase B chain (LDHB): -0.1273 fraction
- Change from GRMD Baseline (fraction): Leucine-rich repeat serine/threonine-protein kinase 2 (LRRK2): -0.023 fraction
- Change from GRMD Baseline (fraction): Leucine-rich repeat transmembrane protein FLRT1 (FLRT1): 0.162 fraction
- Change from GRMD Baseline (fraction): Low affinity immunoglobulin epsilon Fc receptor (FCER2): -0.0106 fraction
- Change from GRMD Baseline (fraction): MAP kinase-activated protein kinase 2 (MAPKAPK2): -0.1017 fraction
- Change from GRMD Baseline (fraction): MAP kinase-activated protein kinase 3 (MAPKAPK3): -0.0643 fraction
- Change from GRMD Baseline (fraction): Macrophage scavenger receptor types I and II (MSR1): 0.4558 fraction
- Change from GRMD Baseline (fraction): Malate dehydrogenase, cytoplasmic (MDH1): -0.0153 fraction
- Change from GRMD Baseline (fraction): Methionine aminopeptidase 2 (METAP2): -0.0243 fraction
- Change from GRMD Baseline (fraction): Microtubule-associated protein tau (MAPT): -0.0598 fraction
- Change from GRMD Baseline (fraction): Mitogen-activated protein kinase 3 (MAPK3): -0.1158 fraction
- Change from GRMD Baseline (fraction): Mitogen-activated protein kinase 8 (MAPK8): -0.1634 fraction
- Change from GRMD Baseline (fraction): Mitogen-activated protein kinase 12 (MAPK12): -0.2043 fraction
- Change from GRMD Baseline (fraction): Mitogen-activated protein kinase 14 (MAPK14): -0.1229 fraction
- Change from GRMD Baseline (fraction): Mothers against decapentaplegic homolog 3 (SMAD3): -0.0623 fraction
- Change from GRMD Baseline (fraction): Myeloblastin (PRTN3): -0.0133 fraction
- Change from GRMD Baseline (fraction): Myoglobin (MB): -0.1998 fraction
- Change from GRMD Baseline (fraction): Myosin-binding protein C, slow-type (MYBPC1): -0.0674 fraction
- Change from GRMD Baseline (fraction): NKG2D ligand 2 (ULBP2): 0.031 fraction
- Change from GRMD Baseline (fraction): NSFL1 cofactor p47 (NSFL1C): -0.264 fraction
- Change from GRMD Baseline (fraction): Natural cytotoxicity triggering receptor 3 (NCR3): -0.0108 fraction
- Change from GRMD Baseline (fraction): Neuronal cell adhesion molecule (NRCAM): -0.0939 fraction
- Change from GRMD Baseline (fraction): Neutral ceramidase (ASAH2): -0.0127 fraction
- Change from GRMD Baseline (fraction): Nucleoside diphosphate kinase A (NME1): -0.1372 fraction
- Change from GRMD Baseline (fraction): OCIA domain-containing protein 1 (OCIAD1): -0.0044 fraction
- Change from GRMD Baseline (fraction): Oncostatin-M (OSM): 0.019 fraction
- Change from GRMD Baseline (fraction): Opioid-binding protein/cell adhesion molecule (OPCML): -0.0002 fraction
- Change from GRMD Baseline (fraction): PIK3CA/PIK3R1 (PIK3CA PIK3R1): -0.229 fraction
- Change from GRMD Baseline (fraction): Parathyroid hormone-related protein (PTHLH): -0.097 fraction
- Change from GRMD Baseline (fraction): Peptidyl-prolyl cis-trans isomerase E (PPIE): -0.0771 fraction
- Change from GRMD Baseline (fraction): Peroxiredoxin-1 (PRDX1): -0.0908 fraction
- Change from GRMD Baseline (fraction): Peroxiredoxin-6 (PRDX6): -0.0459 fraction
- Change from GRMD Baseline (fraction): Phosphatidylethanolamine-binding protein 1 (PEBP1): 0.0739 fraction
- Change from GRMD Baseline (fraction): Phosphoglucomutase-1 (PGM1): 0.1179 fraction
- Change from GRMD Baseline (fraction): Phosphoglycerate mutase 1 (PGAM1): -0.9265 fraction
- Change from GRMD Baseline (fraction): Plasma serine protease inhibitor (SERPINA5): -0.0121 fraction
- Change from GRMD Baseline (fraction): Platelet glycoprotein 4 (CD36): 0.0288 fraction
- Change from GRMD Baseline (fraction): Platelet-activating factor acetylhydrolase (PLA2G7): 0.0256 fraction
- Change from GRMD Baseline (fraction): Platelet-derived growth factor receptor alpha (PDGFRA): -0.0004 fraction
- Change from GRMD Baseline (fraction): Proliferating cell nuclear antigen (PCNA): -0.0276 fraction
- Change from GRMD Baseline (fraction): Protein NOV homolog (NOV): -0.0669 fraction
- Change from GRMD Baseline (fraction): Protein S100-A12 (S100A12): -0.009 fraction
- Change from GRMD Baseline (fraction): RAC-alpha/beta/gamma serine/threonine-protein kinase (AKT1 AKT2 AKT3): -0.2013 fraction
- Change from GRMD Baseline (fraction): RAC-beta serine/threonine-protein kinase (AKT2): -0.1736 fraction
- Change from GRMD Baseline (fraction): Rab GDP dissociation inhibitor beta (GDI2): -0.0642 fraction
- Change from GRMD Baseline (fraction): Receptor tyrosine-protein kinase erbB-3 (ERBB3): -0.022 fraction
- Change from GRMD Baseline (fraction): Receptor-type tyrosine-protein kinase FLT3 (FLT3): -0.0737 fraction
- Change from GRMD Baseline (fraction): Renin (REN): -0.032 fraction
- Change from GRMD Baseline (fraction): Retinoblastoma-associated protein (RB1): 0.235 fraction
- Change from GRMD Baseline (fraction): S-formylglutathione hydrolase (ESD): 0.0004 fraction
- Change from GRMD Baseline (fraction): Serine/threonine-protein kinase 17B (STK17B): 0.0071 fraction
- Change from GRMD Baseline (fraction): Serine/threonine-protein kinase Chk2 (CHEK2): 0.4343 fraction
- Change from GRMD Baseline (fraction): Serine/threonine-protein kinase WNK3 (WNK3): -0.2205 fraction
- Change from GRMD Baseline (fraction): Serine/threonine-protein kinase receptor R3 (ACVRL1): -0.0651 fraction
- Change from GRMD Baseline (fraction): Small nuclear ribonucleoprotein F (SNRPF): -0.0033 fraction
- Change from GRMD Baseline (fraction): Somatostatin-28 (SST): -0.0229 fraction
- Change from GRMD Baseline (fraction): T-lymphocyte activation antigen CD80 (CD80): 0.0022 fraction
- Change from GRMD Baseline (fraction): Thymic stromal lymphopoietin (TSLP): -0.034 fraction
- Change from GRMD Baseline (fraction): Thyroid peroxidase (TPO): -0.0311 fraction
- Change from GRMD Baseline (fraction): Tissue factor pathway inhibitor (TFPI): 0.029 fraction
- Change from GRMD Baseline (fraction): Transcription factor AP-1 (JUN): 0.0325 fraction
- Change from GRMD Baseline (fraction): Transketolase (TKT): -0.16 fraction
- Change from GRMD Baseline (fraction): Translationally-controlled tumor protein (TPT1): -0.0704 fraction
- Change from GRMD Baseline (fraction): Triosephosphate isomerase (TPI1): -0.2239 fraction
- Change from GRMD Baseline (fraction): Tropomyosin beta chain (TPM2): 0.0295 fraction
- Change from GRMD Baseline (fraction): Troponin I, cardiac muscle (TNNI3): 0.0415 fraction
- Change from GRMD Baseline (fraction): Troponin I, fast skeletal muscle (TNNI2): -0.0403 fraction
- Change from GRMD Baseline (fraction): Troponin T, cardiac muscle (TNNT2): -0.0244 fraction
- Change from GRMD Baseline (fraction): Tumor necrosis factor ligand superfamily member 11 (TNFSF11): 0.0726 fraction
- Change from GRMD Baseline (fraction): Tumor necrosis factor receptor superfamily member 1B (TNFRSF1B): -0.0355 fraction
- Change from GRMD Baseline (fraction): Tumor necrosis factor receptor superfamily member 3 (LTBR): -0.0213 fraction
- Change from GRMD Baseline (fraction): Tyrosine-protein kinase Yes (YES1): -0.136 fraction
- Change from GRMD Baseline (fraction): Tyrosine-protein kinase ZAP-70 (ZAP70): 0.0305 fraction
- Change from GRMD Baseline (fraction): Tyrosine-protein phosphatase non-receptor type 1 (PTPN1): -0.0601 fraction
